Data reported in the kinase profiling compilation of Christmann-Franck et al. (2016).

Columns and labels:
[1] = biological target: SRPK1 (human) (UniProt Q96SB4); assay: KINOMEscan competition binding; settings: compound 10.0 µM
[2] = biological target: RIOK1 (human) (UniProt Q9BRS2); assay: KINOMEscan competition binding; settings: compound 10.0 µM
[3] = biological target: BMP2K (human) (UniProt Q9NSY1); assay: KINOMEscan competition binding; settings: compound 10.0 µM
[4] = biological target: MYLK4 (human) (UniProt Q86YV6); assay: KINOMEscan competition binding; settings: compound 10.0 µM
[5] = biological target: RIOK3 (human) (UniProt O14730); assay: KINOMEscan competition binding; settings: compound 10.0 µM
[6] = biological target: TTK (human) (UniProt P33981); assay: KINOMEscan competition binding; settings: for kinase still bound, per cent of control: compound 10.0 µM
[7] = biological target: MKNK2 (human) (UniProt Q9HBH9); assay: KINOMEscan competition binding; settings: compound 10.0 µM
[8] = biological target: DCLK1 (human) (UniProt O15075); assay: KINOMEscan competition binding; settings: compound 10.0 µM
[9] = biological target: TNK1 (human) (UniProt Q13470); assay: KINOMEscan competition binding; settings: compound 10.0 µM
[10] = biological target: TNK2 (human) (UniProt Q07912); assay: KINOMEscan competition binding; settings: compound 10.0 µM
[11] = biological target: DCLK2 (human) (UniProt Q8N568); assay: KINOMEscan competition binding; settings: compound 10.0 µM
[12] = biological target: ALK (human) (UniProt Q9UM73); assay: KINOMEscan competition binding; settings: compound 10.0 µM
[13] = biological target: PTK2 (human) (UniProt Q05397); assay: KINOMEscan competition binding; settings: compound 10.0 µM
[14] = biological target: MAPK7 (human) (UniProt Q13164); assay: KINOMEscan competition binding; settings: compound 10.0 µM
[15] = system: ABL1 (human), P00519 [F317I]; assay: KINOMEscan competition binding; settings: compound 10.0 µM
[16] = biological target: PLK1 (human) (UniProt P53350); assay: KINOMEscan competition binding; settings: compound 10.0 µM
[17] = biological target: PLK4 (human) (UniProt O00444); assay: KINOMEscan competition binding; settings: compound 10.0 µM
[18] = biological target: FRK (human) (UniProt P42685); assay: KINOMEscan competition binding; settings: compound 10.0 µM
[19] = biological target: ROS1 (human) (UniProt P08922); assay: KINOMEscan competition binding; settings: compound 10.0 µM
[20] = biological target: ULK2 (human) (UniProt Q8IYT8); assay: KINOMEscan competition binding; settings: compound 10.0 µM
[21] = biological target: PLK3 (human) (UniProt Q9H4B4); assay: KINOMEscan competition binding; settings: compound 10.0 µM
[22] = biological target: CAMKK2 (human) (UniProt Q96RR4); assay: KINOMEscan competition binding; settings: compound 10.0 µM
[23] = biological target: GAK (human) (UniProt O14976); assay: KINOMEscan competition binding; settings: compound 10.0 µM
[24] = biological target: STK17A (human) (UniProt Q9UEE5); assay: KINOMEscan competition binding; settings: compound 10.0 µM
[25] = biological target: MYLK (human) (UniProt Q15746); assay: KINOMEscan competition binding; settings: compound 10.0 µM
[26] = biological target: RIOK2 (human) (UniProt Q9BVS4); assay: KINOMEscan competition binding; settings: compound 10.0 µM
[27] = biological target: STK33 (human) (UniProt Q9BYT3); assay: KINOMEscan competition binding; settings: compound 10.0 µM
[28] = biological target: STK17B (human) (UniProt O94768); assay: KINOMEscan competition binding; settings: compound 10.0 µM
[29] = biological target: MAP2K3 (human) (UniProt P46734); assay: KINOMEscan competition binding; settings: compound 10.0 µM
[30] = biological target: TTK (human) (UniProt P33981); assay: SelectScreen, TR FRET
[31] = biological target: RPS6KA2 KD2 (human) (UniProt Q15349); assay: KINOMEscan competition binding; settings: compound 10.0 µM

PLK1 (human), sequence (P53350 whole entry, looked up): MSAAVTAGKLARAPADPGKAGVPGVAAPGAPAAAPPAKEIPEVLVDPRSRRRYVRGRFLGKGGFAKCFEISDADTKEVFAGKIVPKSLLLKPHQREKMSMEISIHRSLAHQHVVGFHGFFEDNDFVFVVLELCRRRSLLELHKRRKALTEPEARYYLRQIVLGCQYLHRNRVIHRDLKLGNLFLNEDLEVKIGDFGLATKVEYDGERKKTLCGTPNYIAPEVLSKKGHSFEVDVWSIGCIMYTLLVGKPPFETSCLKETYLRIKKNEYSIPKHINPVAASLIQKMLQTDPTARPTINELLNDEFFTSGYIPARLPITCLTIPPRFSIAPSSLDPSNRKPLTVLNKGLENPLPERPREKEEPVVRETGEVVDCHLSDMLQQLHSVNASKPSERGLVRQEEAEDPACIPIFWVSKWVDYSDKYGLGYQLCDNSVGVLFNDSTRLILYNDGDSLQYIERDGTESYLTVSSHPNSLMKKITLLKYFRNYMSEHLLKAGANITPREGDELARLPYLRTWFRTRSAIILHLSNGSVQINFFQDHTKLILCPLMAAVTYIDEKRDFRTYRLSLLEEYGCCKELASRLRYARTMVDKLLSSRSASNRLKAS
TTK (human), sequence (P33981 whole entry, looked up): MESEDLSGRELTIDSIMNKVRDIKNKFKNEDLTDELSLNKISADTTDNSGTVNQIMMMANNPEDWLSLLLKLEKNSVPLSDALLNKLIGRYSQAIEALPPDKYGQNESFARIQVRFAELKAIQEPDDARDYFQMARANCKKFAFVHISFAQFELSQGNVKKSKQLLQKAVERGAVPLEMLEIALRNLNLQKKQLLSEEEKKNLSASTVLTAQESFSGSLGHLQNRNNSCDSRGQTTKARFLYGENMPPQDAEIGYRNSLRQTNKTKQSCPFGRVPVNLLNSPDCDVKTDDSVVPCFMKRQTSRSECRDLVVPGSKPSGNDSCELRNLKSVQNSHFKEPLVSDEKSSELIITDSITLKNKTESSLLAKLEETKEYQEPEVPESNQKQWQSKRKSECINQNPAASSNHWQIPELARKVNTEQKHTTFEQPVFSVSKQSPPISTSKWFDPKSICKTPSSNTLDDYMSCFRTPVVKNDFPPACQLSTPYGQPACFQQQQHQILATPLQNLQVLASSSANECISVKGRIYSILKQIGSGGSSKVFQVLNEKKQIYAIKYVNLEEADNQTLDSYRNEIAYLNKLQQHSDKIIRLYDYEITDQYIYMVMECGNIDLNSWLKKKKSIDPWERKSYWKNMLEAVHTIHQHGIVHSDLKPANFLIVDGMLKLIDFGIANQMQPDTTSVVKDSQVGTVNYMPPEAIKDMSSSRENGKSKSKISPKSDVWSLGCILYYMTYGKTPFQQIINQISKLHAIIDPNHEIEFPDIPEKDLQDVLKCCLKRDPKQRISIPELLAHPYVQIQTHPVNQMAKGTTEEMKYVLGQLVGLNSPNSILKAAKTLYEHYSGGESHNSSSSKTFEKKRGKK
TNK1 (human), sequence (Q13470 whole entry, looked up): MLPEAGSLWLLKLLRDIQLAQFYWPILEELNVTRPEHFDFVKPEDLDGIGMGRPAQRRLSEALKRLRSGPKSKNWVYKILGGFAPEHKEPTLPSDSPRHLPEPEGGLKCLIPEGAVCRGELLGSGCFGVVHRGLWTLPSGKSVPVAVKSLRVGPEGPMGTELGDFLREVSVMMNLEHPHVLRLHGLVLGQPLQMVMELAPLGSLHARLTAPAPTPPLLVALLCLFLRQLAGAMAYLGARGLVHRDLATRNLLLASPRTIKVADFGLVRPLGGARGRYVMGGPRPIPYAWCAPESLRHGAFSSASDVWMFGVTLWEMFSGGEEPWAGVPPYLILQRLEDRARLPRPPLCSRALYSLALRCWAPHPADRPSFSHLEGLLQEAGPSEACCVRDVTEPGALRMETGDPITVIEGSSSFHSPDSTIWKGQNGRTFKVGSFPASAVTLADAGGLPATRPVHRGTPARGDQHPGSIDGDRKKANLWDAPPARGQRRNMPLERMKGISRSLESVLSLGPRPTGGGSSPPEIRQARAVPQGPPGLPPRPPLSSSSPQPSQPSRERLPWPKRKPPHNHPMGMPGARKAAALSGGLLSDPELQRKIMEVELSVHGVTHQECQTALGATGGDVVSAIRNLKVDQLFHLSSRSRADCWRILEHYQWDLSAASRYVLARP
DCLK1 (human), sequence (O15075 whole entry, looked up): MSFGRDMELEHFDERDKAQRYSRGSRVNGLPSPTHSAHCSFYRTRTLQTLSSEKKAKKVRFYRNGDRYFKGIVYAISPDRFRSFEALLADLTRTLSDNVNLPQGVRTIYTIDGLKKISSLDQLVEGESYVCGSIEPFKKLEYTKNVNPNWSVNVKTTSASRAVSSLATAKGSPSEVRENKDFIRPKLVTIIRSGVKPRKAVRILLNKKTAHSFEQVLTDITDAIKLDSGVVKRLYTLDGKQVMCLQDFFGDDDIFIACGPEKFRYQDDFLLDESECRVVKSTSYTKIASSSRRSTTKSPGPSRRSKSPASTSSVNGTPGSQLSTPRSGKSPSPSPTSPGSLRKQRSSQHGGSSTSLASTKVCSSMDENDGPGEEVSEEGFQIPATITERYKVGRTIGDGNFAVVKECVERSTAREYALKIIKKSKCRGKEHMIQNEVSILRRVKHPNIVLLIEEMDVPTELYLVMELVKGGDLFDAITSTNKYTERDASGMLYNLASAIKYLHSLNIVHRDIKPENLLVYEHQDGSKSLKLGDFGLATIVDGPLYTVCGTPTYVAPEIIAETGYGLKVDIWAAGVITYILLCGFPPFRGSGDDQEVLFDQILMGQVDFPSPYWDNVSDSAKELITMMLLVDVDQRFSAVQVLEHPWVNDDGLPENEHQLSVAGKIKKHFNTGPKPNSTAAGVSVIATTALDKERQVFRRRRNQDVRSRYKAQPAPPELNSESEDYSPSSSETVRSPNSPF
PLK4 (human), sequence (O00444 whole entry, looked up): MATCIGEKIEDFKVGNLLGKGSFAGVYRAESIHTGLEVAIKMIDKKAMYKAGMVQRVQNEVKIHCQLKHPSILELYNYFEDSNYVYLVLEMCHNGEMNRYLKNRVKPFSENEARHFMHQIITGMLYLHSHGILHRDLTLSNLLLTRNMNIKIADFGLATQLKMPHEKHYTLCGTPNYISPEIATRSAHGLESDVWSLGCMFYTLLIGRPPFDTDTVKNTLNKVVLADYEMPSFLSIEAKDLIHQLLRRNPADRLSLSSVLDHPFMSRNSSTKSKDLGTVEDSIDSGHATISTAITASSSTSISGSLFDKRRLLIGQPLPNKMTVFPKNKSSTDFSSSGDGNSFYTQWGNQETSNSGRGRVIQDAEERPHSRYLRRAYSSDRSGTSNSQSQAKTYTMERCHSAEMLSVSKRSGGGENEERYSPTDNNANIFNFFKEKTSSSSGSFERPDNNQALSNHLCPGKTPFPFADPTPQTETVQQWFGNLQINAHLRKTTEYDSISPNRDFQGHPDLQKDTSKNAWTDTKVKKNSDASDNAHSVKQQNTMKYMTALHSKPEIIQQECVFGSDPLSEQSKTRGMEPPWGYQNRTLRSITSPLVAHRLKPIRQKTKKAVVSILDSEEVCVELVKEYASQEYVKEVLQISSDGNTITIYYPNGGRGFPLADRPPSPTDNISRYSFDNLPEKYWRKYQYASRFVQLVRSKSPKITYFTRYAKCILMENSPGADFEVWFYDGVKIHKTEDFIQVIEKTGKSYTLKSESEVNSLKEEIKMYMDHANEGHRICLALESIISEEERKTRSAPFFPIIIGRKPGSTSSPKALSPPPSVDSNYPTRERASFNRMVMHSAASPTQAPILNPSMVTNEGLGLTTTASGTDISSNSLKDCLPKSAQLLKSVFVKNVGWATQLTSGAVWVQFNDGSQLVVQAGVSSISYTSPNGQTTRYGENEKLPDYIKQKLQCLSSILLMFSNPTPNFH
DCLK2 (human), sequence (Q8N568 whole entry, looked up): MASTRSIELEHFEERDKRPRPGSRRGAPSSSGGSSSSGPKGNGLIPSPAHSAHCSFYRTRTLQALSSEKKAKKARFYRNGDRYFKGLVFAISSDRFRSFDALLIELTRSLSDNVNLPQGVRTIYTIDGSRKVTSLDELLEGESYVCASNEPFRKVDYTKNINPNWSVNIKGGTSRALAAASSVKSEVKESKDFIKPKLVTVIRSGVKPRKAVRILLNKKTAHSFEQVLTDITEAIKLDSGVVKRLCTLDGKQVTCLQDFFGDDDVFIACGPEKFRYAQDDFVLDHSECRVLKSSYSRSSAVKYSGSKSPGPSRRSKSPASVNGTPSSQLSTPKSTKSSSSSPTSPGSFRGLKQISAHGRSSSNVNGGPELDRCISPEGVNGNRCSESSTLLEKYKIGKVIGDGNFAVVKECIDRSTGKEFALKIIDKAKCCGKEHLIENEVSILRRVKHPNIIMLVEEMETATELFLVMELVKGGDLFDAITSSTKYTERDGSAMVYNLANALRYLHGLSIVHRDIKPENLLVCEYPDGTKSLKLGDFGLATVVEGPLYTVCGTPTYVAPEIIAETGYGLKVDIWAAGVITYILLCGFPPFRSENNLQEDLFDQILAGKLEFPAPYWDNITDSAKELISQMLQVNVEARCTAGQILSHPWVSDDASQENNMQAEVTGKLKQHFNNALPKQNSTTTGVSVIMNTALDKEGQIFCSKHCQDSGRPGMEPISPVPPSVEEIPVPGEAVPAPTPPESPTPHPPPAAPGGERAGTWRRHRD
MAP2K3 (human), sequence (P46734 whole entry, looked up): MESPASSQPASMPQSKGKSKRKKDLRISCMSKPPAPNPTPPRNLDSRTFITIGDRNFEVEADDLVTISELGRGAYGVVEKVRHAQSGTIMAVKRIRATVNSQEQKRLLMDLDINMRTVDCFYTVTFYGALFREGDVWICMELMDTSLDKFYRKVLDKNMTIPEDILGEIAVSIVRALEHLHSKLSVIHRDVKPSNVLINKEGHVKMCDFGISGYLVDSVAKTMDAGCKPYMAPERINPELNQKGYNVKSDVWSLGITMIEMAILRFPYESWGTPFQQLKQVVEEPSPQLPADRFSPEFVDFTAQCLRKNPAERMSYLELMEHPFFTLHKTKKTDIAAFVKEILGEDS

`NS(=O)(=O)c1ccc(-c2ccc(/C=C3\C(=O)Nc4cccc(Br)c43)o2)cc1` showed a kinase still bound, per cent of control [1] of 16%, a kinase still bound, per cent of control [2] of 15% and a kinase still bound, per cent of control [3] of 34%. For the same compound, the kinase still bound, per cent of control [4] was 1.8%, the kinase still bound, per cent of control [5] was 17% and the kinase still bound, per cent of control [6] was 28%. It also gave a kinase still bound, per cent of control [7] of 34%.
Work on `COc1cc(N2CCN(C)CC2)ccc1Nc1ncc2c(n1)N(C(C)C)c1ccccc1C(=O)N2C` yielded a kinase still bound, per cent of control [8] of 1.2%, a kinase still bound, per cent of control [9] of 3.8% and a kinase still bound, per cent of control [10] of 27%. It also gave a kinase still bound, per cent of control [11] of 1.2%, a kinase still bound, per cent of control [12] of 14% and a kinase still bound, per cent of control [13] of 18%. For the same compound, the kinase still bound, per cent of control [14] was 0%, the kinase still bound, per cent of control [15] was 22% and the kinase still bound, per cent of control [16] was 25%. The kinase still bound, per cent of control [17] was 0.15%, the kinase still bound, per cent of control [18] was 31% and the kinase still bound, per cent of control [6] was 8%. The kinase still bound, per cent of control [19] was 9.2% and the kinase still bound, per cent of control [20] was 25%.
`COc1cc(C(=O)NC2CCC(O)CC2)ccc1Nc1ncc2c(n1)N(C1CCCC1)[C@@H]1CCC[C@@H]1C(=O)N2C` (stereo partly drawn) showed a kinase still bound, per cent of control [21] of 0.9%, a kinase still bound, per cent of control [8] of 8.2% and a kinase still bound, per cent of control [9] of 14%. For the same compound, the kinase still bound, per cent of control [22] was 27%, the kinase still bound, per cent of control [23] was 28% and the kinase still bound, per cent of control [11] was 17%. It also gave a kinase still bound, per cent of control [24] of 0%, a kinase still bound, per cent of control [25] of 1.7% and a kinase still bound, per cent of control [26] of 0.5%. It also gave a kinase still bound, per cent of control [14] of 14%, a kinase still bound, per cent of control [27] of 34% and a kinase still bound, per cent of control [28] of 0%. It also gave a kinase still bound, per cent of control [16] of 0%, a kinase still bound, per cent of control [29] of 0.3% and a kinase still bound, per cent of control [17] of 4.3%. It also gave a kinase still bound, per cent of control [6] of 32%.
For `CCOc1cc(N2CCC(O)CC2)ccc1Nc1ncc2c(n1)N(C1CCCC1)CCC(=O)N2`, the IC50 [30] was 7450 nM and the Kd [6] was 650 nM.
In the case of `CC[C@@H]1C(=O)N(C)c2cnc(Nc3ccc(N4CCC(O)CC4)cc3OC)nc2N1C1CCCC1`, the IC50 [30] is reported as over 10000 nM and the Kd [6] is reported as 1410 nM.
For `CCN1C(=O)CCN(C2CCCC2)c2nc(Nc3ccc(N4CCC(O)CC4)cc3OC(C)C)ncc21`, the IC50 [30] was 1090 nM, the kinase still bound, per cent of control [31] was 12% and the kinase still bound, per cent of control [16] was 4.1%. The Kd [6] was 253 nM and the kinase still bound, per cent of control [6] was 1.9%.
Work on `CC[C@@H]1C(=O)N(C)c2cnc(Nc3ccc(N(C)CCO)cc3OC)nc2N1C1CCCC1` yielded an IC50 [30] of over 10000 nM and a Kd [6] of 4700 nM.
